Tested on in the first data set: not listed separately
Briefly: Chemical stability in acidic and alkaline environments (TLC-monitored). In kind it is physicochemical. As to conditions: 2 mg/mL in methanol + 10% HCl 1:1; TLC at 10 min, 1, 2, 3, 24, 48 h. As to the method:
The chemical stability of the new organic selenocompounds was evaluated in two different environments (acidic and alkaline). Firstly, tested selenocompounds were dissolved in pure anhydrous methanol to obtain a stock solution with a concentration of 2 mg/mL. Then, the solution was divided into two equal parts. A 10% solution of HCl was added in 1:1 proportion to the first part, and a 10% solution of NaOH was added to the second part in the same 1:1 proportion. Then, the stability of the tested Se compounds, either in the acidic or in the basic conditions, was TLC-monitored at specific time periods: 10 min and 1, 2, 3, 24, and 48 h. The following eluents were used: (i) methylene chloride for EDA-26, EDA-73, EDA-74, EDA-93, EDA-109, EDA-119, EDA-120, and EDA-122; a mixture of n-hexane and ethyl acetate in a 4:1 ratio for EDA-58; (ii) chloroform for EDA-71 and EDA-A6; and (iii) acetone for EDA-117.
In the next step of the experiments, the chemical stability of 11 selenoesters (EDA-26, EDA-71, EDA-73, EDA-74, EDA-58, EDA-93, EDA-109, EDA-117, EDA-119, EDA-120 and EDA-122) and the selenoanhydride EDA-A6 in acidic and alkaline environments was evaluated by the use of a previously described method. Unfortunately, it was not possible to estimate the chemical stability of the compounds EDA-46, EDA-53, EDA-56, and […] due to their physicochemical properties: they were liquid at room temperature in the form of an oil, which is not miscible with water.
As to `COC(=O)C[Se]C(=O)c1cc(OC)c(OC)c(OC)c1` [EDA-26, methyl 2-((3,4,5-trimethoxybenzoyl)selanyl)acetate], the “chemical stability in the acidic environment” value was “stable till the end of the analysis (48 h)”.

As for `CC(C)(C)C(=O)C[Se]C(=O)c1ccc(Cl)cc1` [EDA-73, Se-(3,3-dimethyl-2-oxobutyl) 4-chlorobenzoselenoate], the “chemical stability in the acidic environment” value was “stable till the end of the experiment (48 h)”.

Still in this data set, the particulars now being: 2 mg/mL in methanol + 10% NaOH 1:1; TLC at 10 min, 1, 2, 3, 24, 48 h.
In the case of `O=C1[Se]C(=O)c2ccccc21` [EDA-A6, benzo[c]selenophene-1,3-dione], the “chemical stability in the alkaline environment” value is listed as “unstable”.

Regarding `COC(=O)C[Se]C(=O)c1cc(OC)c(OC)c(OC)c1` [EDA-26, methyl 2-((3,4,5-trimethoxybenzoyl)selanyl)acetate], the “chemical stability in the alkaline environment” value is “totally unstable”.

As for `CC(C)(C)C(=O)C[Se]C(=O)c1ccc(Cl)cc1` [EDA-73, Se-(3,3-dimethyl-2-oxobutyl) 4-chlorobenzoselenoate], the “chemical stability in the alkaline environment” value is listed as “unstable”.

In another data set the test system is Salmonella Typhimurium TA100 strain.
Experiment: not given
To be noted: 1 µM; TA100; alert ≥ 2.0. As for the experimental part: Safety profiles were evaluated using an in vitro microbiological method adapted to the microplate Ames test (384-well microtitration plate), which applies Salmonella enterica serovar Typhimurium bacterial strains (the gold standard in mutagenicity research). The experiment was performed according to a previously described protocol, which is provided in the Supplementary Materials. Briefly, the TA 100 strain (deprived of the ability to synthesize the histidine) was incubated with each tested compound in an exposure medium containing a limited amount of histidine. The reversion events were counted both manually and by means of a microplate reader. Each fold increase bigger than two times the baseline level (≥2.0-fold) was considered to indicate a mutagen alert. The experiments and data analyses were prepared according to the procedure that was previously described by Flückiger-Isler et al.. The assay was performed in triplicate. The positive control selected for the mutagenicity assays was NQNO, which causes genome point mutations; specifically, it promotes G:C → A:T transitions in the Salmonella Typhimurium TA-100 strain and other bacteria such as Vibrio harveyi and Escherichia coli.
In the next step of the studies, the in vitro safety profiles of the tested selenocompounds were evaluated. All compounds were tested with the 384-well plate microfluctuation Ames test. The mutagenic index (MI) was used as the measure of mutagenicity.
1.5. Safety profile evaluation - Ames microplate mutagenicity assay
Safety profile was evaluated by the means of in vitro microbiological methods – adapted to microplate Ames test, which applies Salmonella enterica serovar Typhimurium bacterial strains (the gold standard in mutagenicity research).
1.5.1. Compounds preparation
To evaluate the impact of tested compounds and of references on Salmonella enterica serovar Typhimurium (onwards Salmonella Typhimurium) TA-100 strain growth by means of the Ames test, the compounds or the reference were dissolved in the pure DMSO, to obtain the corresponding 10 mM stock solutions. Working solutions for tested compounds (25 μM and 250 μM concentrations) were prepared before the assay in DMSO.
1.5.2. Microplate Ames mutagenicity assay protocol
Prior to the experiment, Salmonella Typhimurium was cultured overnight (NB-2 liq-uid medium in the presence of 25 μg/mL ampicillin). At the day of the experiment, fresh dilutions of the tested compounds (25 μM and 250 μM), reference compound (methylse-leninic acid) and standard mutagen (4-nitroquinoline-N-oxide at 2.5 μM and 12.5 μM) in DMSO were prepared. The positive control selected for the mutagenicity assays was NQNO, which causes point mutations at the genome. Specifically, it promotes G:C → A:T transitions in Salmonella Typhimurium TA-100 strain and in the other bacteria such as Vib-rio harveyi and Escherichia coli.
The mutagenic potential of the tested derivatives was evaluated by the incubation of the abovementioned bacteria (deprived of the ability to synthesize the histidine) with spe-cific concentrations of the tested compounds (for 90 min in the exposure medium), con-taining a limited amount of histidine (enough to provide approximately 2-3 cell divisions).
The occurrence of reversion events to histidine prototrophy was observed through the bacterial growth in the indicator medium without histidine after 48 h of incubation in temperature of 37° C [45]. The final compound and the mutagenic agent concentrations in each single well of a 384 well plate were 1 μM and 10 μM for the compounds; and 0.1 μM and 0.5 μM for the mutagen. Lastly, both a manual count and a microplate reader were used to obtain the results. The medium control baseline (MCB) was estimated as the mean number of revertants in the medium control plus one standard deviation. Each fold in-crease bigger than two times the baseline level ≥ 2.0 was considered as a mutagen alert.
In the case of `O=C1[Se]C(=O)c2ccccc21` [EDA-A6, benzo[c]selenophene-1,3-dione], the “Fold Increase over Baseline” value is on record as 1.08.

On to `C[Se]C(=O)c1ccc(C(=O)[Se]C)s1` [EDA-122, Se,Se-dimethyl thiophene-2,5-bis(carboselenoate)], for which the “Fold Increase over Baseline” value is recorded as 0.63.

Take `C[Se]C(=O)c1cccc(C(=O)[Se]C)n1` [EDA-119, Se,Se-dimethyl pyridine-2,6-bis(carboselenoate)]: the “Fold Increase over Baseline” value is given as 0.54.

Take `COC(=O)C[Se]C(=O)c1cc(OC)c(OC)c(OC)c1` [EDA-26, methyl 2-((3,4,5-trimethoxybenzoyl)selanyl)acetate]: the “Fold Increase over Baseline” value is on record as 0.96.

On to `CC(C)(C)C(=O)C[Se]C(=O)c1ccc(Cl)cc1` [EDA-73, Se-(3,3-dimethyl-2-oxobutyl) 4-chlorobenzoselenoate], for which the “Fold Increase over Baseline” value is listed as 0.84.

In the case of `COC(=O)C[Se]C(=O)c1cc(OC)cc(OC)c1` [EDA-58, methyl 2-((3,5-dimethoxybenzoyl)selanyl)acetate], the “Fold Increase over Baseline” value was 0.67.

Still in this data set, the particulars now being: 1 µM; TA100; mutagenic if MI ≥ 2.
Turning to `O=C1[Se]C(=O)c2ccccc21` [EDA-A6, benzo[c]selenophene-1,3-dione], the “MI (mutagenic index)” value is given as 1.23.

Take `C[Se]C(=O)c1ccc(C(=O)[Se]C)s1` [EDA-122, Se,Se-dimethyl thiophene-2,5-bis(carboselenoate)]: the “MI (mutagenic index)” value was found to be 0.84.

Turning to `C[Se]C(=O)c1cccc(C(=O)[Se]C)n1` [EDA-119, Se,Se-dimethyl pyridine-2,6-bis(carboselenoate)], the “MI (mutagenic index)” value worked out at 0.56.

In the case of `COC(=O)C[Se]C(=O)c1cc(OC)c(OC)c(OC)c1` [EDA-26, methyl 2-((3,4,5-trimethoxybenzoyl)selanyl)acetate], the “MI (mutagenic index)” value stood at 1.51.

As to `CC(C)(C)C(=O)C[Se]C(=O)c1ccc(Cl)cc1` [EDA-73, Se-(3,3-dimethyl-2-oxobutyl) 4-chlorobenzoselenoate], the “MI (mutagenic index)” value amounted to 1.28.

Turning to `COC(=O)C[Se]C(=O)c1cc(OC)cc(OC)c1` [EDA-58, methyl 2-((3,5-dimethoxybenzoyl)selanyl)acetate], the “MI (mutagenic index)” value stood at 0.57.

The same data set, now with this note: 1 µM; TA100; threshold ≥ 0.99.
For `O=C1[Se]C(=O)c2ccccc21` [EDA-A6, benzo[c]selenophene-1,3-dione], the “B (binomial B value)” value is reported as 0.94.

With `C[Se]C(=O)c1ccc(C(=O)[Se]C)s1` [EDA-122, Se,Se-dimethyl thiophene-2,5-bis(carboselenoate)], the “B (binomial B value)” value turned out to be 0.14.

In the case of `C[Se]C(=O)c1cccc(C(=O)[Se]C)n1` [EDA-119, Se,Se-dimethyl pyridine-2,6-bis(carboselenoate)], the “B (binomial B value)” value is 0.24.

Take `COC(=O)C[Se]C(=O)c1cc(OC)c(OC)c(OC)c1` [EDA-26, methyl 2-((3,4,5-trimethoxybenzoyl)selanyl)acetate]: the “B (binomial B value)” value was 0.92.

Turning to `CC(C)(C)C(=O)C[Se]C(=O)c1ccc(Cl)cc1` [EDA-73, Se-(3,3-dimethyl-2-oxobutyl) 4-chlorobenzoselenoate], the “B (binomial B value)” value was 0.72.

For `COC(=O)C[Se]C(=O)c1cc(OC)cc(OC)c1` [EDA-58, methyl 2-((3,5-dimethoxybenzoyl)selanyl)acetate], the “B (binomial B value)” value came to 0.80.

Staying with this data set, now noted: 10 µM.
As for `O=C1[Se]C(=O)c2ccccc21` [EDA-A6, benzo[c]selenophene-1,3-dione], the “cytotoxicity for Salmonella Typhimurium in Ames test” value was “could have been cytotoxic”.

Staying with this data set, now noted: 10 µM; TA100.
Take `O=C1[Se]C(=O)c2ccccc21` [EDA-A6, benzo[c]selenophene-1,3-dione]: the “cytotoxic effect label beside B value” is “C (data points that are significantly smaller (B ≤ 0.01 (bolded)) than the mean number of spontaneous revertants are labelled C for “cytotoxic effect”)”.

Still in this data set, the particulars now being: 10 µM; TA100; alert ≥ 2.0.
As to `O=C1[Se]C(=O)c2ccccc21` [EDA-A6, benzo[c]selenophene-1,3-dione], the “Fold Increase over Baseline” value came to 0.33.

For `C[Se]C(=O)c1ccc(C(=O)[Se]C)s1` [EDA-122, Se,Se-dimethyl thiophene-2,5-bis(carboselenoate)], the “Fold Increase over Baseline” value is recorded as 1.08.

In the case of `C[Se]C(=O)c1cccc(C(=O)[Se]C)n1` [EDA-119, Se,Se-dimethyl pyridine-2,6-bis(carboselenoate)], the “Fold Increase over Baseline” value stood at 0.92.

With `COC(=O)C[Se]C(=O)c1cc(OC)c(OC)c(OC)c1` [EDA-26, methyl 2-((3,4,5-trimethoxybenzoyl)selanyl)acetate], the “Fold Increase over Baseline” value turned out to be 1.37.

For `CC(C)(C)C(=O)C[Se]C(=O)c1ccc(Cl)cc1` [EDA-73, Se-(3,3-dimethyl-2-oxobutyl) 4-chlorobenzoselenoate], the “Fold Increase over Baseline” value amounted to 0.52.

On to `COC(=O)C[Se]C(=O)c1cc(OC)cc(OC)c1` [EDA-58, methyl 2-((3,5-dimethoxybenzoyl)selanyl)acetate], for which the “Fold Increase over Baseline” value came out at 1.78.

Staying with this data set, now noted: 10 µM; TA100; mutagenic if MI ≥ 2.
`O=C1[Se]C(=O)c2ccccc21` [EDA-A6, benzo[c]selenophene-1,3-dione]: the “MI (mutagenic index)” value came to 0.38.

As for `C[Se]C(=O)c1ccc(C(=O)[Se]C)s1` [EDA-122, Se,Se-dimethyl thiophene-2,5-bis(carboselenoate)], the “MI (mutagenic index)” value is recorded as 1.46.

Consider `C[Se]C(=O)c1cccc(C(=O)[Se]C)n1` [EDA-119, Se,Se-dimethyl pyridine-2,6-bis(carboselenoate)], for which the “MI (mutagenic index)” value came out at 0.96.

For the molecule `CC(C)(C)C(=O)C[Se]C(=O)c1ccc(Cl)cc1` [EDA-73, Se-(3,3-dimethyl-2-oxobutyl) 4-chlorobenzoselenoate], the “MI (mutagenic index)” value was 0.79.

Take `COC(=O)C[Se]C(=O)c1cc(OC)cc(OC)c1` [EDA-58, methyl 2-((3,5-dimethoxybenzoyl)selanyl)acetate]: the “MI (mutagenic index)” value was 1.51.

Staying with this data set, now noted: 10 µM; TA100; threshold ≥ 0.99.
As to `O=C1[Se]C(=O)c2ccccc21` [EDA-A6, benzo[c]selenophene-1,3-dione], the “B (binomial B value)” value is given as 0.001.

Turning to `C[Se]C(=O)c1ccc(C(=O)[Se]C)s1` [EDA-122, Se,Se-dimethyl thiophene-2,5-bis(carboselenoate)], the “B (binomial B value)” value was 0.94.

Consider `C[Se]C(=O)c1cccc(C(=O)[Se]C)n1` [EDA-119, Se,Se-dimethyl pyridine-2,6-bis(carboselenoate)], for which the “B (binomial B value)” value is recorded as 0.90.

Regarding `CC(C)(C)C(=O)C[Se]C(=O)c1ccc(Cl)cc1` [EDA-73, Se-(3,3-dimethyl-2-oxobutyl) 4-chlorobenzoselenoate], the “B (binomial B value)” value came out at 0.04.

For `COC(=O)C[Se]C(=O)c1cc(OC)cc(OC)c1` [EDA-58, methyl 2-((3,5-dimethoxybenzoyl)selanyl)acetate], the “B (binomial B value)” value is 1.00.

Staying with this data set, now noted: TA100, 1 and 10 µM.
As to `COC(=O)C[Se]C(=O)c1cc(OC)c(OC)c(OC)c1` [EDA-26, methyl 2-((3,4,5-trimethoxybenzoyl)selanyl)acetate], the “mutagenicity conclusion in Ames test” value is listed as “may have had mutagenic potential”.

The values are drawn from publication PMC8875489, “Pharmaceutical and Safety Profile Evaluation of Novel Selenocompounds with Noteworthy Anticancer Activity” (Pharmaceutics, 2022).
